Entries after “also recorded” stand apart in the source; their conditions may differ.
What was measured:
[1] = test system: TLR3 gene; assay: TLR3 gene expression in PBMCs (real-time PCR); assay type: cell-based, Human; conditions: in vitro (FIG. 1, FIG. 2)
Experimental: (§1) For some experiments, Peripheral Blood Mononuclear Cells (PBMCs) were isolated from donors by Ficol gradient centrifugation. For other experiments, leukophoresed mononuclear cells were obtained from AllCells, LLC (Berkeley, Calif.). Monocyte derived macrophages and dendritic cells were prepared from PBMCs using positive selection of CD14+ cells with Miltenyi micro beads (Miltenyi Biotec Inc., Auburn, Calif.). Dendritic cells were differentiated in RPMI 1640 with 10% fetal bovine serum, using 33 ng/mL IL4 and 66 ng/mL GM-CSF, and macrophages were differentiated using 25 ng/mL M-CSF, for seven days at 37° C.
(§2) IRM compounds were prepared as 1000× stocks in DMSO. PBMCs were diluted to approximately 3.0×10^6 cells per mL in Ex-Vivo 20 media, and 1.0 mL was distributed per well in a 96 deep well plate. Cells were allowed to equilibrate at 37° C. for 1 hour, then IRM compound was added to the culture.
(§3) At each indicated time point, cells were harvested as follows. PBMCs and dendritic cells were harvested by centrifuging the plate at 1500 RPM, 360 RCF, at 4° C. in a Qiagen SIGMA centrifuge (Qiagen Inc., Valencia, Calif.). The media was then vacuum aspirated and 400 μL of RLT buffer with 1.0% 2-mercaptoethanol was added to each well. Macrophage cultures were harvested by aspiration of the media and direct addition of the RLT buffer to the well. The total RNA was purified using a semi-automated procedure on the Qiagen BioRobot 8000 (Qiagen Inc., Valencia, Calif.), with an incorporated DNase digestion step.
(§4) Purified total RNA was transferred to Costar 3565 plate and the optical density at 260 nm and 280 nm was read using a Molecular Devices SpectroMax 384 Plus (Molecular Devices Corp., Sunnyvale, Calif.). The RNA was then ethanol precipitated, washed, and the pellet re-suspended in 10 μL of water. cDNA was made with the Invitrogen Superscript II Kit (Invitrogen Corp., Carlsbad, Calif.) using random priming and 2-3 μg of total RNA. PCR was performed using an ABI 7900 (Applied Biosystems Corp., Foster City, Calif.), and the 384 well Microfluidic Card with Taqman™ chemistry, and the reactions were standardized using 2 ng/μL cDNA in the master mix. Cycling conditions were 50° C. for 10 minutes, 95° C. for 2 minutes, then 35 cycles of 95° C. for 30 seconds, and 60° C. for 1 minute. Data was analyzed using SDS 2.0 software (Applied Biosystems, Inc.) using a threshold value of 0.1. The results were imported into Excel and the expression fold changes were calculated using the ΔΔCt method, (User Bulletin #2, PE Applied BioSystems, Inc.). Normalization of signals was performed using the housekeeping gene, GAPDH.

[2] = test system: TLR3 gene; assay: TLR3 gene expression in macrophages (real-time PCR); assay type: cell-based, Human; conditions: macrophages (FIG. 5)
Experimental: (§5) For some experiments, Peripheral Blood Mononuclear Cells (PBMCs) were isolated from donors by Ficol gradient centrifugation. For other experiments, leukophoresed mononuclear cells were obtained from AllCells, LLC (Berkeley, Calif.). Monocyte derived macrophages and dendritic cells were prepared from PBMCs using positive selection of CD14+ cells with Miltenyi micro beads (Miltenyi Biotec Inc., Auburn, Calif.).
as §2, §3
The RNA was then ethanol precipitated, washed, and the pellet re-suspended in 10 μL of water. cDNA was made with the Invitrogen Superscript II Kit (Invitrogen Corp., Carlsbad, Calif.) using random priming and 2-3 μg of total RNA. PCR was performed using an ABI 7900 (Applied Biosystems Corp., Foster City, Calif.), and the 384 well Microfluidic Card with Taqman™ chemistry, and the reactions were standardized using 2 ng/μL cDNA in the master mix. […] Data was analyzed using SDS 2.0 software (Applied Biosystems, Inc.) using a threshold value of 0.1. The results were imported into Excel and the expression fold changes were calculated using the ΔΔCt method, (User Bulletin #2, PE Applied BioSystems, Inc.). […]

[3] = test system: TLR8 gene; assay: TLR8 gene expression in PBMCs (real-time PCR); assay type: cell-based, Human; conditions: in vitro (FIG. 1, FIG. 4)
Experimental: as §1, §2, §3, §4

[4] = test system: TLR5 gene; assay: TLR5 gene expression in macrophages (real-time PCR); assay type: cell-based, Human; conditions: macrophages (FIG. 6)
Experimental: as §5, §2
(§6) At each indicated time point, cells were harvested as follows. […]
(§7) The RNA was then ethanol precipitated, washed, and the pellet re-suspended in 10 μL of water. cDNA was made with the Invitrogen Superscript II Kit (Invitrogen Corp., Carlsbad, Calif.) using random priming and 2-3 μg of total RNA. […] Data was analyzed using SDS 2.0 software (Applied Biosystems, Inc.) using a threshold value of 0.1. The results were imported into Excel and the expression fold changes were calculated using the ΔΔCt method, (User Bulletin #2, PE Applied BioSystems, Inc.). […]

[5] = test system: TLR7 gene; assay: TLR7 gene expression in macrophages (real-time PCR); assay type: cell-based, Human; conditions: macrophages (FIG. 7)
Experimental: as §5, §2, §6, §7

[6] = test system: TLR6; assay: TLR6 gene expression in dendritic cells (real-time PCR); assay type: cell-based, Human
Experimental: as §1
(§8) IRM compounds were prepared as 1000× stocks in DMSO. PBMCs were diluted to approximately 3.0×10^6 cells per mL in Ex-Vivo 20 media, and 1.0 mL was distributed per well in a 96 deep well plate. Cells were allowed to equilibrate at 37° C. for 1 hour, then IRM compound was added to the culture. […]
(§9) Purified total RNA was transferred to Costar 3565 plate and the optical density at 260 nm and 280 nm was read using a Molecular Devices SpectroMax 384 Plus (Molecular Devices Corp., Sunnyvale, Calif.). […] Data was analyzed using SDS 2.0 software (Applied Biosystems, Inc.) using a threshold value of 0.1. The results were imported into Excel and the expression fold changes were calculated using the ΔΔCt method, (User Bulletin #2, PE Applied BioSystems, Inc.). […]

[7] = test system: TLR7; assay: TLR7 gene expression in dendritic cells (real-time PCR); assay type: cell-based, Human
Experimental: as §1, §8, §9

[8] = test system: TLR7 gene; assay: TLR7 gene expression in PBMCs (real-time PCR); assay type: cell-based, Human; conditions: in vitro (FIG. 1, FIG. 3)
Experimental: as §1, §8, §9

[9] = test system: TLR1; assay: TLR1 expression in actinic keratosis lesion biopsies, phase II study; assay type: in vivo, human; conditions: AK lesion, 5% cream (ALDARA) 3 times per week for 4 weeks; highest response time point vs sun-unexposed non-AK skin
Excerpt: (§10) A phase II, double-blind, vehicle-controlled, randomized, parallel group study included 17 male subjects with histologically confirmed actinic keratosis (AK). Eligible subjects were randomized to receive either IRM5 formulated as a 5% cream (ALDARA, 3M Pharmaceuticals, St. Paul, Minn.) or vehicle cream in a 3:1 ratio. Study subjects had at least five clinically typical, discrete, visible AK lesions within a 25 cm^2 area on the balding scalp that were suitable for shave biopsies.
(§11) Subjects applied 1 sachet (250 mg) of study cream to the treatment area 3 times per week for 4 weeks. Each dose of study cream was applied prior to normal sleeping hours at approximately the same time on each dosing day and was to remain on the skin for approximately 8 hours.
(§12) Each subject could have up to 8 shave biopsies performed. Biopsy samples obtained at the treatment initiation visit and all subsequent visits were designated for gene expression analysis. At the treatment initiation visit (T=0), an intact lesion in the treatment area was biopsied (sample series A) to establish a baseline for AK gene expression. […] The sun-unexposed area biopsy was used to establish baseline control for gene expression. […]
(§13) RNA from each sample was extracted and expression of TLR1, TLR3, TLR6, TLR7, TLR8, TLR9, and TLR10 was analyzed as described in Example 1. […]

[10] = test system: TLR3; assay: TLR3 expression in actinic keratosis lesion biopsies, phase II study; assay type: in vivo, human; conditions: AK lesion, 5% cream (ALDARA) 3 times per week for 4 weeks; highest response time point vs sun-unexposed non-AK skin
Excerpt: as §10, §11, §12, §13

[11] = test system: TLR6; assay: TLR6 expression in actinic keratosis lesion biopsies, phase II study; assay type: in vivo, human; conditions: AK lesion, 5% cream (ALDARA) 3 times per week for 4 weeks; highest response time point vs sun-unexposed non-AK skin
Excerpt: as §10, §11, §12, §13

[12] = test system: TLR7; assay: TLR7 expression in actinic keratosis lesion biopsies, phase II study; assay type: in vivo, human; conditions: AK lesion, 5% cream (ALDARA) 3 times per week for 4 weeks; highest response time point vs sun-unexposed non-AK skin
Excerpt: as §10, §11, §12, §13

[13] = test system: TLR8; assay: TLR8 expression in actinic keratosis lesion biopsies, phase II study; assay type: in vivo, human; conditions: AK lesion, 5% cream (ALDARA) 3 times per week for 4 weeks; highest response time point vs sun-unexposed non-AK skin
Excerpt: as §10, §11, §12, §13

[14] = test system: TLR9; assay: TLR9 expression in actinic keratosis lesion biopsies, phase II study; assay type: in vivo, human; conditions: AK lesion, 5% cream (ALDARA) 3 times per week for 4 weeks; highest response time point vs sun-unexposed non-AK skin
Excerpt: as §10, §11, §12, §13

[15] = test system: TLR10; assay: TLR10 expression in actinic keratosis lesion biopsies, phase II study; assay type: in vivo, human; conditions: AK lesion, 5% cream (ALDARA) 3 times per week for 4 weeks; highest response time point vs sun-unexposed non-AK skin
Excerpt: as §10, §11, §12, §13

CCCCc1nc2c(N)nc3ccccc3c2n1CCCCNS(C)(=O)=O [IRM3, N-[4-(4-amino-2-butyl-1H-imidazo[4,5-c]quinolin-1-yl)butyl]methanesulfonamide]
modulation of TLR3 gene expression [1]: upregulate gene expression | modulation of TLR3 gene expression [2]: do not significantly modulate gene expression

CCOCc1nc2c(N)nc3c(c2n1CC(C)(C)O)CCCC3 [IRM1, 4-amino-2-(ethoxymethyl)-α,α-dimethyl-6,7,8,9-tetrahydro-1H-imidazo[4,5-c]quinoline-1-ethanol]
modulation of TLR3 gene expression [1]: upregulates gene expression | modulation of TLR8 gene expression [3]: higher and earlier peaks of gene expression | modulation of TLR3 gene expression [2]: downregulated; also recorded: downregulates gene expression | modulation of TLR5 gene expression [4]: downregulated | modulation of TLR7 gene expression [5]: downregulated | modulation of expression from TLR6 [6]: may downregulate expression | modulation of expression from TLR7 [7]: may downregulate expression

CC(C)Cn1cnc2c(N)nc3cccnc3c21 [IRM7, 1-(2-methylpropyl)-1H-imidazo[4,5-c][1,5]naphthyridin-4-amine]
modulation of TLR3 gene expression [1]: little effect on gene expression | modulation of TLR7 gene expression [8]: little effect on gene expression | modulation of TLR8 gene expression [3]: little effect on gene expression

CC(C)Cn1cnc2c(N)nc3ccccc3c21 [IRM5, 1-(2-methylpropyl)-1H-imidazo[4,5-c]quinolin-4-amine]
modulation of TLR3 gene expression [1]: upregulate gene expression | modulation of TLR3 gene expression [2]: do not significantly modulate gene expression | Median Fold Change - IRM5-treated (IRM-treated/Series C), TLR1 [9]: 2.1 fold | Median Fold Change - IRM5-treated (IRM-treated/Series C), TLR3 [10]: 1.5 fold | Median Fold Change - IRM5-treated (IRM-treated/Series C), TLR6 [11]: 1.9 fold | Median Fold Change - IRM5-treated (IRM-treated/Series C), TLR7 [12]: 4.9 fold | Median Fold Change - IRM5-treated (IRM-treated/Series C), TLR8 [13]: 2.4 fold | Median Fold Change - IRM5-treated (IRM-treated/Series C), TLR9 [14]: 15.2 fold | Median Fold Change - IRM5-treated (IRM-treated/Series C), TLR10 [15]: 3.6 fold

Cc1nc2c(N)nc3cccnc3c2n1CC(C)C [IRM8, 2-methyl-1-(2-methylpropyl)-1H-imidazo[4,5-c][1,5]naphthyridin-4-amine]
modulation of TLR8 gene expression [3]: higher and earlier peaks of gene expression

Cc1nc2c(N)nc3ccccc3c2n1CC(C)(C)O [IRM6, 4-amino-α,α,2-trimethyl-1H-imidazo[4,5-c]quinoline-1-ethanol]
modulation of TLR8 gene expression [3]: higher and earlier peaks of gene expression
